Source: patent US20060063759A1, “Tricyclic steroid hormone nuclear receptor modulators” (priority 2002, published 2006)
Like-named read-outs stand apart in the source and are kept apart here.

What was measured:
glucocorticoid receptor = biological target: T1, glucocorticoid receptor (Homo sapiens, UniProt P04150); experiment: Glucocorticoid Receptor Binding Assay ([3H]-dexamethasone, A549 cell extract); settings: [3H]-dexamethasone binding, read-out: GR Ki
T1 construct: containing 50-200 ug of A549 cell extract and 1.86 nM [^3H]-dexamethasone; host or cells: A549 human lung epithelial cells (sonicated cell extract)
T1 sequence (P04150 1-777): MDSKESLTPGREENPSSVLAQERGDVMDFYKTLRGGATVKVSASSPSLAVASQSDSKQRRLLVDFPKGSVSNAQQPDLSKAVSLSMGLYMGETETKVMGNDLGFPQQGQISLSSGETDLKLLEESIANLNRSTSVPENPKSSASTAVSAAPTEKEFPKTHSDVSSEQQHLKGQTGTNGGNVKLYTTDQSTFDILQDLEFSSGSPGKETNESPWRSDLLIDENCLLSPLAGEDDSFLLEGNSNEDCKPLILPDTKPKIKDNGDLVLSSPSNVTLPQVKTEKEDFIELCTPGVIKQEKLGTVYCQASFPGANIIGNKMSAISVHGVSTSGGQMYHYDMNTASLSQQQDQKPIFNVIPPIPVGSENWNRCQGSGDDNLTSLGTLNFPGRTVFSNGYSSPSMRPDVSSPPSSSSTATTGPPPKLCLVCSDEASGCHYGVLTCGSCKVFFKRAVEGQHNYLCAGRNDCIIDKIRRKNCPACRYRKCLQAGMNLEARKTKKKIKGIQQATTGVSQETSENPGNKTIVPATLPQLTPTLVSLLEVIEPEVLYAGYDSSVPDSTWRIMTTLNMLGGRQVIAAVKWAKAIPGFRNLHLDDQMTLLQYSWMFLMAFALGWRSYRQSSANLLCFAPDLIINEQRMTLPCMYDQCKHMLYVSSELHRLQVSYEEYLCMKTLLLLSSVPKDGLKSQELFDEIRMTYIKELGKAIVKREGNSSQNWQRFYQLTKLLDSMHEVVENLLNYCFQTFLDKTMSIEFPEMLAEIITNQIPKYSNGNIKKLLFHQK
How it was run: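 Displacement of [3H]-dexamethasone (1.86 nM) from glucocorticoid receptor in sonicated A549 lung epithelial cell extracts, 16 h at 4 °C, pH 7.2 molybdate-containing buffer. Bound radioactivity was scintillation-counted after charcoal/dextran stripping of free ligand.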

human MR = biological target: T2, human MR (Homo sapiens, UniProt P08235); experiment: Mineralocorticoid Receptor Binding Assay ([3H]-aldosterone)
T2 construct: The full length human MR gene is cloned from a human kidney or human brain cDNA library; His tag from the pAcHLT vector (own knowledge); made in house; host or cells: Sf9 insect cells (baculovirus, pAcHLT transfer vector)
T2 sequence (P08235 1-984): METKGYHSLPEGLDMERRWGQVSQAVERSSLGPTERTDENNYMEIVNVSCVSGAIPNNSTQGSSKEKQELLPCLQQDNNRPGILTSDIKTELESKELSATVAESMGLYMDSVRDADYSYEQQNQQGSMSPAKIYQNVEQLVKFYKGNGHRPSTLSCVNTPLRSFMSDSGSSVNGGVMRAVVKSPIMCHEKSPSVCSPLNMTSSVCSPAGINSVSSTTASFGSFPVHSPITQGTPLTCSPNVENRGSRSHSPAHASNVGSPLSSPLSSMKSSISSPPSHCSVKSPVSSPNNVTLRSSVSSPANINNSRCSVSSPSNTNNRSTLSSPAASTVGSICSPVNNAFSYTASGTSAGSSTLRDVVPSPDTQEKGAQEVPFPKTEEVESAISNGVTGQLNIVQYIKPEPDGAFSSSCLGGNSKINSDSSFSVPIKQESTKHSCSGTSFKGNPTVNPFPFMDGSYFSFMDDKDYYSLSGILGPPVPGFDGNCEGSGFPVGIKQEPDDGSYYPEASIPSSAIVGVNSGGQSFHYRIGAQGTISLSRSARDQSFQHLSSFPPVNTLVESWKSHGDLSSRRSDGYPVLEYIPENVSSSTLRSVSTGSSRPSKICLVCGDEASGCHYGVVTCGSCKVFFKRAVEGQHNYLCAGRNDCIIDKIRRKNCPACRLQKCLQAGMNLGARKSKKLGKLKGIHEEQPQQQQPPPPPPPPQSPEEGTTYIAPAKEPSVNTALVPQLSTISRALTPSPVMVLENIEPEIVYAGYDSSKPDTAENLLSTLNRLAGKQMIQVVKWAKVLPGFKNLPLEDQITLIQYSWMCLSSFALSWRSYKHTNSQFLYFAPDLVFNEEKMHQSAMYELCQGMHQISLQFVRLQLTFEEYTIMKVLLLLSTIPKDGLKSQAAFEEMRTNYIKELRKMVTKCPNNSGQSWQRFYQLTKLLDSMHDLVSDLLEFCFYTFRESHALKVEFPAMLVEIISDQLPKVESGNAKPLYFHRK
How it was run: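 Receptor source: freeze-thaw lysate of baculovirus-infected Sf9 cells carrying full-length human MR, 20-25 μg protein. Incubation ~16 h at 4 °C with shaking, pH 7.5 buffer containing 30 mM sodium molybdate and 10% glycerol.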

[1] = [3H]-aldosterone binding, human MR expressed in Sf9 cells, read-out: MR Ki

Row | Structure (SMILES) | melting point [°C] | Ki (glucocorticoid receptor) [nM] | Ki (human MR; [1]) [nM] | Ki (human MR) [nM]
1 | CCNS(=O)(=O)c1cc(C)ccc1C=C1c2ccccc2CCc2ccccc21 [Example 17, 2-(10,11-Dihydro-dibenzo[a,d]cyclohepten-5-ylidenemethyl)-N-ethyl-5-methyl-benzenesulfonamide] | 172.4 | – | – | –
2 | Cc1ccc(C=C2c3ccccc3CCc3ccccc32)c(S(=O)(=O)N(C)C)c1 [Example 19, 2-(10,11-Dihydro-dibenzo[a,d]cyclohepten-5-ylidenemethyl)-5,N,N-trimethyl-benzenesulfonamide] | 186.6 | – | – | –
3 | NS(=O)(=O)c1cccc(C=C2c3ccccc3CCc3ccccc32)c1 [Example 24, 3-(10,11-Dihydro-dibenzo[a,d]cyclohepten-5-ylidenemethyl)-benzenesulfonamide] | 204 | – | – | –
4 | CN(C)S(=O)(=O)c1cccc(C=C2c3ccccc3CCc3ccccc32)c1 [Example 25, 3-(10,11-Dihydro-dibenzo[a,d]cyclohepten-5-ylidenemethyl)-N,N-dimethyl-benzenesulfonamide] | 167.3 | – | – | –
5 | O=S(=O)(c1ccccc1C=C1c2ccccc2CCc2ccccc21)N1CCOCC1 [Example 8, 4-[2-(10,11-Dihydro-dibenzo[a,d]cyclohepten-5-ylidenemethyl)-benzenesulfonyl]-morpholine] | 139.3 | – | – | –
6 | COc1ccc(C=C2c3ccccc3CCc3ccccc32)cc1OC [Example 36, 5-(3,4-Dimethoxy-benzylidene)-10,11-dihydro-5H-dibenzo[a,d]cycloheptene] | 102.8 | – | – | –
7 | COc1ccc(C=C2c3ccccc3CCc3ccccc32)cc1 [Example 33, 5-(4-Methoxy-benzylidene)-10,11-dihydro-5H-dibenzo-[a,d]cycloheptene] | 116.8 | – | – | –
8 | Cc1ccc(C=C2c3ccccc3CCc3ccccc32)c(S(=O)(=O)Nc2ccccc2)c1 [Example 13] | 220.4 | – | – | –
9 | Brc1ccccc1C=C1c2ccccc2CCc2ccccc21 [Example 29, 5-(2-Bromo-benzylidene)-10,11-dihydro-5H-dibenzo-[a,d]cycloheptene] | 122.7 | – | – | –
10 | Cc1cc(S(=O)(=O)N(C)C)c(C=C2c3ccccc3CCc3ccccc32)cc1Cl [Example 10, 4-Chloro-2-(10,11-dihydro-dibenzo[a,d]cyclohepten-5-ylidenemethyl)-5,N,N-trimethylbenzenesulfonamide] | 199.9 | – | – | –
11 | Cc1ccc(C=C2c3ccccc3CCc3ccccc32)c(S(=O)(=O)NC2CC2)c1 [Example 14, N-Cyclopropyl-2-(10,11-dihydro-dibenzo[a,d]cyclohepten-5-ylidenemethyl)-5-methyl-benzenesulfonamide] | 160.8 | – | – | –
12 | Cc1ccc(C=C2c3ccccc3CCc3ccccc32)c(S(=O)(=O)N2CCOCC2)c1 [Example 22, 4-[2-(10,11-Dihydro-dibenzo[a,d]cyclohepten-5-ylidenemethyl)-5-methyl-benzenesulfonyl]-morpholine] | 157.2 | – | – | –
13 | Nc1cc(C=C2c3ccccc3CCc3ccccc32)ccc1O [Example 63, 2-Amino-4-(10,11-dihydro-dibenzo[a,d]cyclohepten-5-ylidenemethyl)-phenol] | 158.8 | – | – | –
14 | COc1ccc(C=C2c3ccccc3CCc3ccccc32)cc1Br [Example 34, 5-(3-Bromo-4-methoxy-benzylidene)-10,11-dihydro-5H-dibenzo[a,d]cycloheptene] | 140.7 | – | – | –
15 | CS(=O)(=O)Nc1cccc(C=C2c3ccccc3CCc3cc(Cl)ccc32)c1 [206(b), N-[3-(2-Chloro-10,11-dihydro-dibenzo[a,d]cyclohepten-5-ylidenemethyl)-phenyl]-methanesulfonamide] | – | < 500 | < 500 | –
16 | COc1ccc2c(c1)COc1cc(F)ccc1/C2=C(\C)c1cccc(NS(C)(=O)=O)c1 [Example 820] | – | < 500 | – | < 500

Further lines, with some results ahead:

Row | melting point [°C] | Ki (glucocorticoid receptor) [nM] | Ki (human MR; [1]) [nM] | Structure (SMILES) | Ki (human MR) [nM]
17 | 124.2 | – | – | CN(c1cccc(C=C2c3ccccc3CCc3ccccc32)c1)S(C)(=O)=O [Example 124, N-[3-(10,11-Dihydro-dibenzo[a,d]cyclohepten-5-ylidenemethyl)-phenyl]-N-methyl-methanesulfonamide] | –
18 | 189.7 | – | – | CC(=O)Nc1ccccc1C=C1c2ccccc2CCc2ccccc21 [Example 115, N-[2-(10,11-Dihydro-dibenzo[a,d]cyclohepten-5-ylidenemethyl)-phenyl]-acetamide] | –
19 | 192.1 | – | – | COc1ccc(C=C2c3ccccc3CCc3ccccc32)cc1NS(C)(=O)=O [Example 97, N-[5-(10,11-Dihydro-dibenzo[a,d]cyclohepten-5-ylidenemethyl)-2-methoxy-phenyl]-methanesulfonamide] | –
20 | 62.7 | – | – | COc1ccc(C=C2c3ccccc3CCc3ccccc32)cc1N [Example 89, 5-(10,11-Dihydro-dibenzo[a,d]cyclohepten-5-ylidenemethyl)-2-methoxy-phenylamine] | –
21 | – | < 1000 | < 500 | Cc1cccc2c1C(=Cc1ccc(NS(C)(=O)=O)cc1)c1ccccc1CC2 [Example 310] | –
22 | – | < 10000 | < 500 | O=c1[nH]c2ccc(/C=C3/c4ccccc4CCc4cc(C(F)(F)F)ccc43)cc2[nH]1 [Example 473] | –
23 | – | < 10000 | < 500 | Nc1ccc(/C=C2\c3ccc(F)cc3CCc3ncccc32)cc1 [Example 534] | –
24 | – | < 10000 | < 500 | CS(=O)(=O)Nc1cncc(C=C2c3ccccc3CCc3ccccc32)n1 [Example 233, N-[6-(10,11-Dihydro-dibenzo[a,d]cyclohepten-5-ylidenemethyl)-pyrazin-2-yl]-methanesulfonamide] | –
25 | – | < 500 | < 500 | CS(=O)(=O)Nc1cccc(/C=C2/c3ccccc3OCc3c(Cl)cccc32)c1 [Example 274, N-[3-(7-Chloro-6H-dibenzo[b,e]oxepin-11-ylidenemethyl)-phenyl]-methanesulfonamide] | –
26 | – | < 500 | < 500 | C/C(=C1/c2ccc(F)cc2COc2cc(F)ccc21)c1cccc(NS(C)(=O)=O)c1 [Example 809] | –
27 | – | < 500 | < 500 | CCC(=C1c2ccccc2CCc2cc(C)ccc21)c1cccc(NS(C)(=O)=O)c1 [Example 774] | –
28 | – | < 500 | < 500 | CS(=O)(=O)Nc1cccc(C=C2c3ccccc3CCc3cc(F)cc(F)c32)c1 [Example 344] | –
29 | – | < 1000 | < 500 | Oc1cccc(/C=C2\c3ccccc3CCc3c(Br)cccc32)c1 [Example 372] | –
30 | – | < 10000 | < 500 | N#Cc1ccc2c(c1)CCc1ccccc1/C2=C\c1ccc2[nH]c(=O)[nH]c2c1 [Example 456] | –
31 | – | < 500 | < 500 | C/C(=C1\c2ccc(F)cc2COc2cc(F)ccc21)c1cccc(NS(C)(=O)=O)c1 [Example 810] | –
